{"source": "ChEMBL document CHEMBL3046903", "about": "“Systemic action of novel neonicotinoid insecticide IPP-10 and its effect on the feeding behaviour of Rhopalosiphum padi on wheat” (2010)", "key": {"Rhopalosiphum padi [1]": {"tested_on": "Rhopalosiphum padi", "experiment": "Contact toxicity against Rhopalosiphum padi infested wheat plant applied as spray measured after 24 hr", "type": "functional"}, "Rhopalosiphum padi [2]": {"tested_on": "Rhopalosiphum padi", "experiment": "Toxicity against Rhopalosiphum padi infested wheat plant assessed as mortality at 1000 mg/l applied to upper plant for 1 min followed by basipetal transportation for 24 hr measured 48 hr after removal of upper plant parts relative to control", "type": "functional"}, "Rhopalosiphum padi [3]": {"tested_on": "Rhopalosiphum padi", "experiment": "Insecticidal activity against adult Rhopalosiphum padi infested wheat plant assessed as reduction in xylem ingestion at 2 mg/l applied to the roots for 6 hr by electrical penetration graphical analysis relative to control", "type": "functional, organism-based"}, "Rhopalosiphum padi [4]": {"tested_on": "Rhopalosiphum padi", "experiment": "Insecticidal activity against adult Rhopalosiphum padi infested wheat plant assessed as reduction in xylem ingestion at 0.4 mg/l applied to the roots for 6 hr by electrical penetration graphical analysis relative to control", "type": "functional, organism-based"}, "Rhopalosiphum padi [5]": {"tested_on": "Rhopalosiphum padi", "experiment": "Insecticidal activity against adult Rhopalosiphum padi infested wheat plant assessed as total time of xylem ingestion at 2 mg/l applied to the roots for 6 hr by electrical penetration graphical analysis (reference value: 23.1 +/- 4.5 min)", "type": "functional"}, "Rhopalosiphum padi [6]": {"tested_on": "Rhopalosiphum padi", "experiment": "Insecticidal activity against adult Rhopalosiphum padi infested wheat plant assessed as reduction in occurrences of salivation into sieve elements at 2 mg/l applied to the roots for 6 hr by electrical penetration graphical analysis relative to control", "type": "functional, organism-based"}, "Rhopalosiphum padi [7]": {"tested_on": "Rhopalosiphum padi", "experiment": "Toxicity against Rhopalosiphum padi infested wheat plant applied to the roots measured after 24 hr", "type": "functional"}, "Rhopalosiphum padi [8]": {"tested_on": "Rhopalosiphum padi", "experiment": "Toxicity against first-instar nymph of Rhopalosiphum padi assessed as reduction in weight at 0.4 mg/l applied to roots measured after 7 days relative to control", "type": "functional, organism-based"}, "Rhopalosiphum padi [9]": {"tested_on": "Rhopalosiphum padi", "experiment": "Toxicity against Rhopalosiphum padi infested wheat plant applied to the roots measured after 48 hr", "type": "functional"}, "Rhopalosiphum padi [10]": {"tested_on": "Rhopalosiphum padi", "experiment": "Insecticidal activity against adult Rhopalosiphum padi infested wheat plant assessed as reduction in occurrences of phloem ingestion at 2 mg/l applied to the roots for 6 hr by electrical penetration graphical analysis relative to control", "type": "functional, organism-based"}, "Rhopalosiphum padi [11]": {"tested_on": "Rhopalosiphum padi", "experiment": "Insecticidal activity against adult Rhopalosiphum padi infested wheat plant assessed as time taken for first phloem activity occurrence at 0.4 mg/l applied to the roots for 6 hr by electrical penetration graphical analysis (reference value: 141.9 +/- 18.1 min)", "type": "functional"}, "Rhopalosiphum padi [12]": {"tested_on": "Rhopalosiphum padi", "experiment": "Insecticidal activity against adult Rhopalosiphum padi infested wheat plant assessed as time taken for first xylem ingestion occurrence at 0.4 mg/l applied to the roots for 6 hr by electrical penetration graphical analysis (reference value: 145.5 +/- 27.1 min)", "type": "functional"}, "Rhopalosiphum padi [13]": {"tested_on": "Rhopalosiphum padi", "experiment": "Toxicity against first-instar nymph of Rhopalosiphum padi assessed as reduction in reproductive rate at 0.4 mg/l applied to roots measured after 16 days relative to control", "type": "functional, organism-based"}, "Rhopalosiphum padi [14]": {"tested_on": "Rhopalosiphum padi", "experiment": "Insecticidal activity against adult Rhopalosiphum padi infested wheat plant assessed as total time of phloem ingestion at 0.4 mg/l applied to the roots for 6 hr by electrical penetration graphical analysis (reference value: 296.4 +/- 39.3 min)", "type": "functional"}, "Rhopalosiphum padi [15]": {"tested_on": "Rhopalosiphum padi", "experiment": "Insecticidal activity against adult Rhopalosiphum padi infested wheat plant assessed as total time of salivation into sieve elements at 0.4 mg/l applied to the roots for 6 hr by electrical penetration graphical analysis (reference value: 35.4 +/- 6.8 secs)", "type": "functional"}, "Rhopalosiphum padi [16]": {"tested_on": "Rhopalosiphum padi", "experiment": "Insecticidal activity against adult Rhopalosiphum padi infested wheat plant assessed as bout duration of xylem ingestion at 2 mg/l applied to the roots for 6 hr by electrical penetration graphical analysis (reference value: 20.4 +/- 4.5 min)", "type": "functional"}, "Rhopalosiphum padi [17]": {"tested_on": "Rhopalosiphum padi", "experiment": "Insecticidal activity against adult Rhopalosiphum padi infested wheat plant assessed as total time of phloem ingestion at 2 mg/l applied to the roots for 6 hr by electrical penetration graphical analysis (reference value: 296.4 +/- 39.3 min)", "type": "functional"}, "Rhopalosiphum padi [18]": {"tested_on": "Rhopalosiphum padi", "experiment": "Insecticidal activity against adult Rhopalosiphum padi infested wheat plant assessed as bout duration of phloem ingestion at 0.4 mg/l applied to the roots for 6 hr by electrical penetration graphical analysis (reference value: 277.2 +/- 30.8 min)", "type": "functional"}, "Rhopalosiphum padi [19]": {"tested_on": "Rhopalosiphum padi", "experiment": "Insecticidal activity against adult Rhopalosiphum padi infested wheat plant assessed as total time of xylem ingestion at 0.4 mg/l applied to the roots for 6 hr by electrical penetration graphical analysis (reference value: 23.1 +/- 4.5 min)", "type": "functional"}, "Rhopalosiphum padi [20]": {"tested_on": "Rhopalosiphum padi", "experiment": "Insecticidal activity against adult Rhopalosiphum padi infested wheat plant assessed as bout duration of xylem ingestion at 0.4 mg/l applied to the roots for 6 hr by electrical penetration graphical analysis (reference value: 20.4 +/- 4.5 min)", "type": "functional"}, "Rhopalosiphum padi [21]": {"tested_on": "Rhopalosiphum padi", "experiment": "Toxicity against first-instar nymph of Rhopalosiphum padi assessed as time until reproductive maturity at 0.4 mg/l applied to roots (reference value: 6.6 +/- 0.52 days)", "type": "functional"}, "Rhopalosiphum padi [22]": {"tested_on": "Rhopalosiphum padi", "experiment": "Toxicity against Rhopalosiphum padi infested wheat plant assessed as mortality at 1000 mg/l applied to upper plant for 1 min followed by basipetal transportation for 24 hr measured 24 hr after removal of upper plant parts relative to control", "type": "functional"}, "Rhopalosiphum padi [23]": {"tested_on": "Rhopalosiphum padi", "experiment": "Insecticidal activity against adult Rhopalosiphum padi infested wheat plant assessed as bout duration of salivation into sieve elements at 0.4 mg/l applied to the roots for 6 hr by electrical penetration graphical analysis (reference value: 32.4 +/- 3 secs)", "type": "functional"}, "Rhopalosiphum padi [24]": {"tested_on": "Rhopalosiphum padi", "experiment": "Toxicity against Rhopalosiphum padi infested wheat plant assessed as mortality at 1000 mg/l applied to upper plant for 1 min followed by basipetal transportation for 48 hr measured 48 hr after removal of upper plant parts relative to control", "type": "functional"}, "Rhopalosiphum padi [25]": {"tested_on": "Rhopalosiphum padi", "experiment": "Insecticidal activity against adult Rhopalosiphum padi infested wheat plant assessed as bout duration of phloem ingestion at 2 mg/l applied to the roots for 6 hr by electrical penetration graphical analysis (reference value: 277.2 +/- 30.8 min)", "type": "functional"}, "Rhopalosiphum padi [26]": {"tested_on": "Rhopalosiphum padi", "experiment": "Insecticidal activity against adult Rhopalosiphum padi infested wheat plant assessed as frequency of phloem ingestion at 0.4 mg/l applied to the roots for 6 hr by electrical penetration graphical analysis (reference value: 2.85 +/- 0.18 Hz)", "type": "functional"}, "Rhopalosiphum padi [27]": {"tested_on": "Rhopalosiphum padi", "experiment": "Insecticidal activity against adult Rhopalosiphum padi infested wheat plant assessed as bout duration of salivation into sieve elements at 2 mg/l applied to the roots for 6 hr by electrical penetration graphical analysis (reference value: 32.4 +/- 3 secs)", "type": "functional"}, "Rhopalosiphum padi [28]": {"tested_on": "Rhopalosiphum padi", "experiment": "Insecticidal activity against adult Rhopalosiphum padi infested wheat plant assessed as frequency of xylem ingestion at 0.4 mg/l applied to the roots for 6 hr by electrical penetration graphical analysis (reference value: 8.2 +/- 0.3 Hz)", "type": "functional"}, "Rhopalosiphum padi [29]": {"tested_on": "Rhopalosiphum padi", "experiment": "Insecticidal activity against adult Rhopalosiphum padi infested wheat plant assessed as total time of salivation into sieve elements at 2 mg/l applied to the roots for 6 hr by electrical penetration graphical analysis (reference value: 35.4 +/- 6.8 secs)", "type": "functional"}, "Rhopalosiphum padi [30]": {"tested_on": "Rhopalosiphum padi", "experiment": "Insecticidal activity against adult Rhopalosiphum padi infested wheat plant assessed as reduction in occurrences of phloem ingestion at 0.4 mg/l applied to the roots for 6 hr by electrical penetration graphical analysis relative to control", "type": "functional, organism-based"}, "Rhopalosiphum padi [31]": {"tested_on": "Rhopalosiphum padi", "experiment": "Toxicity against Rhopalosiphum padi infested wheat plant assessed as mortality at 1000 mg/l applied to upper plant for 1 min followed by basipetal transportation for 48 hr measured 24 hr after removal of upper plant parts relative to control", "type": "functional"}, "Rhopalosiphum padi [32]": {"tested_on": "Rhopalosiphum padi", "experiment": "Insecticidal activity against adult Rhopalosiphum padi infested wheat plant assessed as reduction in occurrences of salivation into sieve elements at 0.4 mg/l applied to the roots for 6 hr by electrical penetration graphical analysis relative to control", "type": "functional, organism-based"}}, "note": "Calls of active or inactive are those of the source. No cut-off for these calls is given here.", "data": [{"smiles": "CC1CC(O)N2CCN(Cc3ccc(Cl)nc3)C2=C1[N+](=O)[O-]", "note": "(centres undefined)", "values": [{"measurement": "LC50", "setting": "Rhopalosiphum padi [1]", "result": 2.45, "unit": "µg/mL"}, {"measurement": "Activity", "setting": "Rhopalosiphum padi [2]", "result": 33.2, "unit": "%"}, {"measurement": "Activity", "setting": "Rhopalosiphum padi [3]", "result": "Active"}, {"measurement": "Activity", "setting": "Rhopalosiphum padi [4]", "result": "inactive"}, {"measurement": "Time", "setting": "Rhopalosiphum padi [5]", "result": 0, "unit": "min"}, {"measurement": "Activity", "setting": "Rhopalosiphum padi [6]", "result": "Active"}, {"measurement": "LC15", "setting": "Rhopalosiphum padi [7]", "result": 0.4, "unit": "mg/L"}, {"measurement": "LC50", "setting": "Rhopalosiphum padi [7]; Rhopalosiphum padi, 24 h", "result": 23.4, "unit": "µg/mL"}, {"measurement": "Activity", "setting": "Rhopalosiphum padi [8]", "result": "Active"}, {"measurement": "LC15", "setting": "Rhopalosiphum padi [9]", "result": 0.09, "unit": "mg/L"}, {"measurement": "LC50", "setting": "Rhopalosiphum padi [9]; Rhopalosiphum padi, 48 h", "result": 2.4, "unit": "µg/mL"}, {"measurement": "Activity", "setting": "Rhopalosiphum padi [10]", "result": "Active"}, {"measurement": "Time", "setting": "Rhopalosiphum padi [11]", "result": 139.8, "unit": "min"}, {"measurement": "Time", "setting": "Rhopalosiphum padi [12]", "result": 141.5, "unit": "min"}, {"measurement": "Activity", "setting": "Rhopalosiphum padi [13]", "result": "Active"}, {"measurement": "Time", "setting": "Rhopalosiphum padi [14]", "result": 218.8, "unit": "min"}, {"measurement": "Time", "setting": "Rhopalosiphum padi [15]", "result": 64.3, "unit": "s"}, {"measurement": "Time", "setting": "Rhopalosiphum padi [16]", "result": 0, "unit": "min"}, {"measurement": "Time", "setting": "Rhopalosiphum padi [17]", "result": 0, "unit": "min"}, {"measurement": "Time", "setting": "Rhopalosiphum padi [18]", "result": 206.8, "unit": "min"}, {"measurement": "Time", "setting": "Rhopalosiphum padi [19]", "result": 10.4, "unit": "min"}, {"measurement": "Time", "setting": "Rhopalosiphum padi [20]", "result": 9.7, "unit": "min"}, {"measurement": "Time", "setting": "Rhopalosiphum padi [21]", "result": 8.39, "unit": "days"}, {"measurement": "Activity", "setting": "Rhopalosiphum padi [22]", "result": 14.3, "unit": "%"}, {"measurement": "Time", "setting": "Rhopalosiphum padi [23]", "result": 59.5, "unit": "s"}, {"measurement": "Activity", "setting": "Rhopalosiphum padi [24]", "result": 59.9, "unit": "%"}, {"measurement": "Time", "setting": "Rhopalosiphum padi [25]", "result": 0, "unit": "min"}, {"measurement": "Activity", "setting": "Rhopalosiphum padi [26]", "result": 1.96, "unit": "Hz"}, {"measurement": "Time", "setting": "Rhopalosiphum padi [27]", "result": 0, "unit": "s"}, {"measurement": "Activity", "setting": "Rhopalosiphum padi [28]", "result": 7.03, "unit": "Hz"}, {"measurement": "Time", "setting": "Rhopalosiphum padi [29]", "result": 0, "unit": "s"}, {"measurement": "Activity", "setting": "Rhopalosiphum padi [30]", "result": "inactive"}, {"measurement": "Activity", "setting": "Rhopalosiphum padi [31]", "result": 18.4, "unit": "%"}, {"measurement": "Activity", "setting": "Rhopalosiphum padi [32]", "result": "inactive"}]}, {"smiles": "O=[N+]([O-])/N=C1\\NCCN1Cc1ccc(Cl)nc1", "note": "[IMIDACLOPRID]", "values": [{"measurement": "LC50", "setting": "Rhopalosiphum padi [1]", "result": 0.9, "unit": "µg/mL"}, {"measurement": "Activity", "setting": "Rhopalosiphum padi [2]", "result": 6.7, "unit": "%"}, {"measurement": "Activity", "setting": "Rhopalosiphum padi [22]", "result": 3.1, "unit": "%"}, {"measurement": "Activity", "setting": "Rhopalosiphum padi [24]", "result": 7.1, "unit": "%"}, {"measurement": "Activity", "setting": "Rhopalosiphum padi [31]", "result": 3.5, "unit": "%"}]}]}
